{
  "source": "patent US12168003B2",
  "about": "“Selective inhibition of T follicular helper cells for treatment of autoimmune disorders” (priority 2019, dated 2024)",
  "key": {"[1]": {"test_system": "EAE mice", "test": "Active EAE (MOG33-55/CFA), 4EGI-1 after onset of clinical symptoms", "type": "in vivo, mouse", "protocol": "Ten-week old female mice purchased from Jackson Laboratory were subcutaneously injected at two sites with 100 μL […] emulsified in CFA (Hooke Labs) per flank. On the same day, 6 hours later, and on day 2, mice were injected with 100 ng of pertussis toxin in 200 μL i.p. Mice were monitored daily and scored on a scale of 0-5 where 0, no disease; 1, tail paralysis; 2; hind limb paresis; 3, complete hind limb paralysis; 4, front limb weakness and hind limb paralysis, and 5, moribund state. When stated, mice were either administered 25 mg/kg 4EGI-1 or vehicle i.p. from d 0 to 21 following EAE induction or 75 mg/kg 4EGI-1 or vehicle i.p. from day 12 to 21 following EAE induction and randomization. LFB-H images imported into FIJI underwent color deconvolution to isolate myelin staining. A binary image was generated and % myelination of the spinal cord was calculated. Spinal cords from mice not subjected to EAE were set to 100% and all other samples from the same group were normalized. H&E images imported into FIJI underwent color deconvolution to isolate hematoxylin staining. A binary image was generated and % infiltration of the spinal cord of was calculated. Five-micron sections of paraffin embedded tissue were stained with Akoya Biosciences® Opal™ multiplex automation kit reagents unless stated otherwise. Automated staining was performed on Leica BondRX® autostainer. The protocol was performed according to manufacturers' instructions with primary antibodies to CD19 (Cell Signaling Technology, cat #90176) and CD4 (Cell Signaling Technology, cat #25229). Briefly, all slides underwent sequential epitope retrieval with Leica Biosystems epitope retrieval 2 solution (EDTA based, pH9, Cat. AR9640), primary and secondary antibody incubation and tyramide signal amplification (TSA) with Opal® fluorophores Op690 and Op520. Primary and secondary antibodies were removed during epitope retrieval steps while fluorophores remain covalently attached to the epitope. Semi-automated image acquisition was performed on a Vectra® Polaris multispectral imaging system. After whole slide scanning at 10× the tissue was manually outlined to select fields for multispectral imaging at 20×. Phenochart® software from Akoya Biosciences was used for spectral unmixing of the whole slide scans. Scans were imported into QuPath and representative images were exported into FIJI."}, "[2]": {"test_system": "pre-existing TFH cells", "conditions": "75 mg/kg, mice (Sekiyama et al.); cited from earlier work"}},
  "data": [
    {"compound": "O=C(O)C(Cc1ccccc1[N+](=O)[O-])=NNc1nc(-c2ccc(Cl)c(Cl)c2)cs1", "note": "(mixture of isomers) [4EGI-1]", "values": [
      {"measurement": "day by which mice entered remission", "setting": "[1]; 75 mg/kg from day 12", "value": "≤ 15", "unit": "days"},
      {"measurement": "decrease of CD4+ T cells producing IFN-γ in spinal cord and brain", "setting": "[1]; 75 mg/kg from day 12", "value": 4, "unit": "fold"},
      {"measurement": "decrease of CD4+ T cells producing IL-17A in spinal cord and brain", "setting": "[1]; 75 mg/kg from day 12", "value": 4, "unit": "fold"},
      {"measurement": "decreased infiltration and retention of CD4+ T cells in brain", "setting": "[1]; 75 mg/kg from day 12", "value": 4, "unit": "fold"},
      {"measurement": "time to marked improvement in clinical symptoms after 4EGI-1 administration", "setting": "[1]; 75 mg/kg from day 12", "value": "2 to 3", "unit": "days"},
      {"measurement": "spinal cord immune cell infiltration", "setting": "[1]; 75 mg/kg from day 12, H&E", "value": "marked reduction"},
      {"measurement": "weight compared to vehicle-treated animals", "setting": "[1]; 75 mg/kg from day 12, day 18", "value": "increased"},
      {"measurement": "decreased infiltration and retention of CD4+ T cells in spinal cord", "setting": "[1]; 75 mg/kg from day 12, day 21", "value": 4, "unit": "fold"},
      {"measurement": "decreased levels of splenic TFH cells", "setting": "[1]; 75 mg/kg from day 12, day 21", "value": 3, "unit": "fold"},
      {"measurement": "demyelination compared to vehicle-treated mice", "setting": "[1]; 75 mg/kg from day 12, day 21", "value": "reduced"},
      {"measurement": "myelination regained, relative to normal levels", "setting": "[1]; 75 mg/kg from day 12, day 21, Luxol fast blue", "value": "~90", "unit": "%"},
      {"measurement": "ELFs / CD4+ T cell clusters in spinal cord", "setting": "[1]; 75 mg/kg from day 12, immunofluorescence", "value": "smaller clusters"},
      {"measurement": "progression of disease", "setting": "[1]; 75 mg/kg from day 12, vs vehicle-treated mice", "value": "inhibited"},
      {"measurement": "safety of the dose", "setting": "[2]", "value": "within its safety range"}
    ]}
  ]
}
